Laboratory results published in ChEMBL document CHEMBL1275576, “In vitro activity of tomopenem (CS-023/RO4908463) against anaerobic bacteria” (Antimicrob Agents Chemother, 2009).

Legend:
[1] = Half life in rhesus monkey at 10 mg/kg by HPLC method; assay type: ADME, organism-based, Macaca mulatta; set-up: dose 10 mg/kg; conditions: in vivo
Plasma = assay: Plasma protein binding in human at […] by HPLC method; assay type: ADME, cell-free
[2] = Half life in human at […] by HPLC method; assay type: ADME, organism-based; conditions: in vivo

C[C@@H](O)[C@H]1C(=O)N2C(C(=O)O)=C(S[C@@H]3CN[C@H](C(=O)Nc4cccc(C(=O)O)c4)C3)[C@H](C)[C@H]12
half-life [1]: 300 min
Activity (Plasma): > 95%
half-life [2]: 300 min
